Source: patent US4820694A, “Modifications of 3-O-demethylmycinose in macrocin and lactenocin” (priority 1986, dated 1989)
Converted amounts (≈) assume the structure as drawn. Read-outs that look alike come from different tables or passages of the source.

Tests used:
[1] = test system: Pasteurella multocida 22A; test: broth-dilution microtiter MIC test; format: cell-based; settings: Pasteurella multocida, 22A
Protocol: (§1) The MIC's in Table III were determined by standard agar-dilution assays. The MIC's in Table IV were obtained using conventional brothdilution microtiter tests.

[2] = test system: Pasteurella multocida 60A; test: broth-dilution microtiter MIC test; format: cell-based; settings: Pasteurella multocida, 60A
Protocol: as §1

[3] = test system: Mycoplasma gallisepticum 15E; test: broth-dilution microtiter MIC test; format: cell-based; settings: Mycoplasmoides gallisepticum, 15E
Protocol: as §1

Mycoplasma hyorhinis 29E = test: broth-dilution microtiter MIC test; format: cell-based; settings: Mycoplasma, 29E
Protocol: as §1

Streptococcus sp. 19F = test: broth-dilution microtiter MIC test; format: cell-based; settings: Streptococcus, SP.19F
Protocol: as §1

[4] = test system: Bordetella bronchiseptica; test: broth-dilution microtiter MIC test; format: cell-based; settings: Bordetella bronchiseptica
Protocol: as §1

[5] = test system: Pasteurella hemolytica 23C; test: broth-dilution microtiter MIC test; format: cell-based; settings: Pasteurella, 23C
Protocol: as §1

[6] = test system: Pasteurella multocida 68C; test: broth-dilution microtiter MIC test; format: cell-based; settings: Pasteurella multocida, 68C
Protocol: as §1

[7] = test system: Mycoplasma gallisepticum 36H; test: broth-dilution microtiter MIC test; format: cell-based; settings: Mycoplasmoides gallisepticum, 36H
Protocol: as §1

[8] = test system: Pasteurella hemolytica 22C; test: broth-dilution microtiter MIC test; format: cell-based; settings: Pasteurella, 22C
Protocol: as §1

[9] = test system: Mycoplasma gallisepticum 29C; test: broth-dilution microtiter MIC test; format: cell-based; settings: Mycoplasmoides gallisepticum, 29C
Protocol: as §1

Mycoplasma synoviae 40A = test: broth-dilution microtiter MIC test; format: cell-based; settings: Mycoplasmopsis synoviae, 40A
Protocol: as §1

[10] = test system: Staphylococcus aureus 19C; test: broth-dilution microtiter MIC test; format: cell-based; settings: Staphylococcus aureus, 19C
Protocol: as §1

[11] = test system: Pasteurella hemolytica 41D; test: broth-dilution microtiter MIC test; format: cell-based; settings: Pasteurella, 41D
Protocol: as §1

[12] = test system: Pasteurella multocida 17E; test: broth-dilution microtiter MIC test; format: cell-based; settings: Pasteurella multocida, 17E
Protocol: as §1

[13] = test system: Pasteurella multocida 40G; test: broth-dilution microtiter MIC test; format: cell-based; settings: Pasteurella multocida, 40G
Protocol: as §1

[14] = test system: Klebsiella pneumoniae X68; test: standard agar-dilution MIC assay; format: cell-based; settings: Klebsiella pneumoniae, X68
Protocol: as §1

[15] = test system: Staphylococcus epidermidis EP12; test: standard agar-dilution MIC assay; format: cell-based
Protocol: as §1

[16] = test system: Haemophilus influenzae C.L.; test: standard agar-dilution MIC assay; format: cell-based; settings: Haemophilus influenzae
Protocol: as §1

Escherichia coli EC14 = test: standard agar-dilution MIC assay; format: cell-based
Protocol: as §1

[17] = test system: Haemophilus influenzae 76; test: standard agar-dilution MIC assay; format: cell-based; settings: Haemophilus influenzae, 76
Protocol: as §1

[18] = test system: Staphylococcus aureus X1.1; test: standard agar-dilution MIC assay; format: cell-based; settings: Staphylococcus aureus, X1.1
Protocol: as §1

[19] = test system: Streptococcus Group D 9960; test: standard agar-dilution MIC assay; format: cell-based; settings: GROUPD9960, read-out: MIC
Protocol: as §1

[20] = test system: Pseudomonas aeruginosa X239; test: standard agar-dilution MIC assay; format: cell-based; settings: Pseudomonas aeruginosa, X239
Protocol: as §1

[21] = test system: Streptococcus pyogenes C203; test: standard agar-dilution MIC assay; format: cell-based; settings: Streptococcus pyogenes, C203
Protocol: as §1

[22] = test system: Staphylococcus epidermidis EPI1; test: standard agar-dilution MIC assay; format: cell-based; settings: Staphylococcus epidermidis, EPI1
Protocol: as §1

[23] = test system: Streptococcus Group D X66; test: standard agar-dilution MIC assay; format: cell-based; settings: read-out: MIC
Protocol: as §1

[24] = test system: Staphylococcus aureus V41; test: standard agar-dilution MIC assay; format: cell-based; settings: Staphylococcus aureus, V41
Protocol: as §1

[25] = test system: Staphylococcus aureus X400; test: standard agar-dilution MIC assay; format: cell-based; settings: Staphylococcus aureus, X400
Protocol: as §1

[26] = test system: Streptococcus pyogenes C203; test: protection of mice experimentally infected with S. pyogenes C203; format: in vivo
Procedure, shortened: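 Activity is given as ED50, the mg/kg dose (×2) protecting half of the mice infected with S. pyogenes C203. Compound was dosed 1 and 4 h after infection.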

[27] = test system: Streptococcus pneumoniae Park I; test: microbe, parasite or virus in culture; format: cell-based; settings: Streptococcus pneumoniae
Protocol: as §1

[28] = test system: Staphylococcus aureus S13E; test: microbe, parasite or virus in culture; format: cell-based; settings: Staphylococcus aureus, S13E
Protocol: as §1

[29] = broth-dilution microtiter, read-out: MIC

| Compound | MIC [3] [µg/mL] | MIC (Mycoplasma hyorhinis 29E) [µg/mL] | MIC (Streptococcus sp. 19F) [µg/mL] | MIC [6] [µg/mL] | MIC [7] [µg/mL] | MIC [9] [µg/mL] | MIC (Mycoplasma synoviae 40A) [µg/mL] | MIC [10] [µg/mL] | MIC [15] [µg/mL] | MIC [18] [µg/mL] | MIC [19] [µg/mL] | MIC [21] [µg/mL] | MIC [22] [µg/mL] | MIC [23] [µg/mL] | MIC [24] [µg/mL] | MIC [25] [µg/mL] | MIC [27] [µg/mL] | MIC [28] [µg/mL] | also measured |
| --- | --- | --- | --- | --- | --- | --- | --- | --- | --- | --- | --- | --- | --- | --- | --- | --- | --- | --- | --- |
| CCC1OC(=O)CC(O)C(C)C(OC2OC(C)C(OC3CC(C)(O)C(O)C(C)O3)C(N(C)C)C2OC(C)=O)C(CC=O)CC(C)C(=O)C=CC(C)=CC1COC1OC(C)C(OC(=O)CC(C)C)C(O)C1OC (centres unmarked) [Compound 5, 2'-O-Acetyl-4'"-O-isovaleryl-macrocin] | 50 (≈ 48.6 µM) | 1.56 (≈ 1.52 µM) | 1.56 (≈ 1.52 µM) | 50 (≈ 48.6 µM) | 50 (≈ 48.6 µM) | 1.56 (≈ 1.52 µM) | 1.56 (≈ 1.52 µM) | 3.12 (≈ 3.03 µM) | 2 (≈ 1.95 µM) | 2 (≈ 1.95 µM) | 2 (≈ 1.95 µM) | 1 (≈ 0.973 µM) | 2 (≈ 1.95 µM) | 2 (≈ 1.95 µM) | 2 (≈ 1.95 µM) | 4 (≈ 3.89 µM) | 0.5 (≈ 0.486 µM) | 2 (≈ 1.95 µM) | MIC [1, 29]: > 50 µg/mL; MIC ([2]; broth-dilution microtiter, Avian isolate, read-out: MIC): > 50 µg/mL; MIC [4, 29]: > 50 µg/mL; MIC [5, 29]: > 50 µg/mL; MIC [8, 29]: > 50 µg/mL; MIC [11, 29]: > 50 µg/mL; MIC ([12]; broth-dilution microtiter, Bovine isolate, read-out: MIC): > 50 µg/mL; MIC [13, 29]: > 50 µg/mL; MIC ([14]; agar-dilution, read-out: MIC): > 128 µg/mL; MIC ([16]; agar-dilution, Ampicillin-sensitive strain, read-out: MIC): > 128 µg/mL; MIC (Escherichia coli EC14; agar-dilution, read-out: MIC): > 128 µg/mL; MIC ([17]; agar-dilution, Ampicillin-resistant strain, read-out: MIC): > 128 µg/mL; MIC ([20]; agar-dilution, read-out: MIC): > 128 µg/mL; ED50 ([26]; C203, Oral, mice, mg/kg × 2, doses given 1 and 4 hours postinfection, read-out: ED50): 54.3 mg/kg; ED50 ([26]; C203, sc, Subcutaneous, mice, mg/kg × 2, doses given 1 and 4 hours postinfection, read-out: ED50): 9.2 mg/kg |
| CCC1OC(=O)CC(O)C(C)C(OC2OC(C)C(OC3CC(C)(O)C(O)C(C)O3)C(N(C)C)C2OC(C)=O)C(CC=O)CC(C)C(=O)C=CC(C)=CC1COC1OC(C)C(OC(C)=O)C(OC(=O)Cc2ccccc2)C1OC (centres unmarked) [Compound 17, 2',4'"-Di-O-acetyl-3'"-O-phenylacetylmacrocin] | 12.5 (≈ 11.3 µM) | 3.12 (≈ 2.83 µM) | 1.56 (≈ 1.41 µM) | > 50 | 12.5 (≈ 11.3 µM) | 0.39 (≈ 0.353 µM) | 1.56 (≈ 1.41 µM) | 3.12 (≈ 2.83 µM) | 2 (≈ 1.81 µM) | 2 (≈ 1.81 µM) | 2 (≈ 1.81 µM) | 1 (≈ 0.906 µM) | 4 (≈ 3.62 µM) | 2 (≈ 1.81 µM) | 2 (≈ 1.81 µM) | 4 (≈ 3.62 µM) | 1 (≈ 0.906 µM) | 4 (≈ 3.62 µM) | MIC [1]: > 50 µg/mL; MIC [2]: > 50 µg/mL; MIC [4]: > 50 µg/mL; MIC [5]: > 50 µg/mL; MIC [8]: > 50 µg/mL; MIC [11]: > 50 µg/mL; MIC [12]: > 50 µg/mL; MIC [13]: > 50 µg/mL; MIC [14]: > 128 µg/mL; MIC [16]: > 128 µg/mL; MIC (Escherichia coli EC14): > 128 µg/mL; MIC [17]: > 128 µg/mL; MIC [20]: > 128 µg/mL; ED50 ([26]; C203, sc): > 10 mg/kg |
